In patent US11026944B2, “Compositions and methods for treating insomnia” (Eisai R&D Management Co., Ltd., priority 2014, dated 2021):
Where two headings read alike, the source gives them in different places.

Experiments:
[1] = Single dose study (001 Study) Part A: plasma PK of compound A; format: in vivo; settings: human, healthy subjects (Part A); for AUC from 0 to 24 h / AUC(0-inf) / AUC(0-t) / Cmax / half-life / Tmax: plasma, po; for AUC from 0 to 24 h: read-out: AUC(0-24) Mean(SD); for AUC(0-inf): read-out: AUC(0-inf) Mean(SD); for AUC(0-t): read-out: AUC(0-t) Mean(SD); for Cmax: read-out: Cmax Mean(SD); for half-life: read-out: t1/2 Median (converted); for Tmax: read-out: tmax Median; for concentration at 9 h: read-out: C9 Mean(SD)
Description: This was a randomized, double-blind, placebo- and active-controlled, sequential, single-dose study. The study consisted of two parts, Part A (healthy subjects) and Part B (otherwise healthy subjects with primary insomnia).
(§1) For Part A, 64 healthy subjects were enrolled into cohorts sequentially in a gradual dose escalation manner, to receive either compound A or placebo, and stratified by gender. Each cohort comprised six compound A- and two placebo-treated subjects. All study drugs were administered as single doses using one or more compound A-capsules or compound A-matched placebo capsules due to the test dose. After screening, subjects underwent baseline procedures and randomization on Day-2. Subjects were dosed on Day 1 in the morning after an overnight fast, 1 hour after lights-on. PK blood samples were collected at prespecified timepoints, and PD assessments were performed. Subjects were administered assessments on Day 1 predose and every 2 hours from 2 to 12 hours postdose, and each morning on Days 2 to 6.
For subjects in Part A, Blood samples for determination of plasma concentrations of compound A were collected on Day 1 predose and at 0.25 (15 minutes), 0.5 (30 minutes), 1, 2, 3, 4, 5, 6, 9, 12, 24, 48, 72, 96, 120, 168, and 240 hours after oral administration of compound A, but collected up to 72 hours in the first three cohorts (1, 2.5 and 5 mg compound A groups). PK samples were collected preferentially via an indwelling venous catheter for the first 12 hours and by direct venipuncture thereafter.
Plasma concentrations of compound A were measured using a validated liquid chromatography-mass spectrometry/mass spectrometry (LC-MS/MS) assay.

healthy subjects = test: 001 Study Part A: sleepiness measures KSS, DSST, PVT; format: in vivo, human
Experimental: as §1
These assessments included the Karolinska Sleepiness Scale (KSS), Digit Symbol Substitution Test (DSST), and Psychomotor Vigilance Test (PVT) in order to assess daytime sleepiness, level of alertness, and ability to concentrate. Waketime Questionnaires were administered after PD assessments each morning on Days 1 to Day 6. Time and duration of naps was recorded on Days 1 and 2. Safety was monitored throughout the study. […]

## Cc1ncc(OC[C@@]2(c3cccc(F)c3)C[C@H]2C(=O)Nc2ccc(F)cn2)c(C)n1 [Compound A, (1R,2 S)-2-(((2,4-dimethylpyrimidin-5-yl)oxy)methyl)-2-(3-fluorophenyl)-N-(5-fluoropyridin-2-yl) cyclopropanecarboxamide]
[1]; 1 mg, single oral 1 mg
  AUC from 0 to 24 h: ~0.0172 µg·h/mL
  AUC(0-inf): ~0.0198 µg·h/mL
  AUC(0-t): ~0.0191 µg·h/mL
  Cmax: ~0.0053 µg/mL
  half-life: ~12.7 h
  Tmax: ~1 h
[1]; 2.5 mg, single oral 2.5 mg
  AUC from 0 to 24 h: 0.0568 µg·h/mL
  AUC(0-inf): 0.0797 µg·h/mL
  AUC(0-t): 0.0802 µg·h/mL
  Cmax: 0.0159 µg/mL
  half-life: 30.1 h
  Tmax: 1.01 h
[1]; 5 mg, single oral 5 mg
  AUC from 0 to 24 h: 0.0946 µg·h/mL
  AUC(0-inf): 0.149 µg·h/mL
  AUC(0-t): 0.128 µg·h/mL
  Cmax: 0.0227 µg/mL
  half-life: 31.3 h
  Tmax: 1.55 h
[1]; 10 mg, single oral 10 mg
  AUC from 0 to 24 h: 0.159 µg·h/mL
  AUC(0-inf): 0.311 µg·h/mL
  AUC(0-t): 0.284 µg·h/mL
  Cmax: 0.036 µg/mL
  half-life: 56.1 h
  Tmax: 1 h
[1]; 25 mg, single oral 25 mg
  AUC from 0 to 24 h: 0.654 µg·h/mL
  AUC(0-inf): 1.54 µg·h/mL
  AUC(0-t): 1.45 µg·h/mL
  Cmax: 0.108 µg/mL
  half-life: 65.5 h
  Tmax: 2.01 h
[1]; 50 mg, single oral 50 mg
  AUC from 0 to 24 h: 1.11 µg·h/mL
  AUC(0-inf): 2.15 µg·h/mL
  AUC(0-t): 2.08 µg·h/mL
  Cmax: 0.168 µg/mL
  half-life: 51.9 h
  Tmax: 2.53 h
[1]; 100 mg, single oral 100 mg
  AUC from 0 to 24 h: 1.93 µg·h/mL
  AUC(0-inf): 4.74 µg·h/mL
  AUC(0-t): 4.49 µg·h/mL
  Cmax: 0.264 µg/mL
  half-life: 59.8 h
  Tmax: 3 h
[1]; 200 mg, single oral 200 mg
  AUC from 0 to 24 h: 4.08 µg·h/mL
  AUC(0-inf): 10.5 µg·h/mL
  AUC(0-t): 9.84 µg·h/mL
  Cmax: 0.431 µg/mL
  half-life: 65.2 h
  Tmax: 3 h
[1]; plasma at 9 h after single oral 1 mg
  concentration at 9 h: 0.000384 µg/mL
[1]; plasma at 9 h after single oral 2.5 mg
  concentration at 9 h: 0.00154 µg/mL
[1]; plasma at 9 h after single oral 5 mg
  concentration at 9 h: 0.00268 µg/mL
[1]; plasma at 9 h after single oral 10 mg
  concentration at 9 h: 0.0046 µg/mL
[1]; plasma at 9 h after single oral 25 mg
  concentration at 9 h: 0.0219 µg/mL
[1]; plasma at 9 h after single oral 50 mg
  concentration at 9 h: 0.0393 µg/mL
[1]; plasma at 9 h after single oral 100 mg
  concentration at 9 h: 0.086 µg/mL
[1]; plasma at 9 h after single oral 200 mg
  concentration at 9 h: 0.199 µg/mL
Healthy subjects; postdose, coinciding with Cmax
  time of maximal pharmacodynamic response on KSS, DSST, PVT: ~2 h
Healthy subjects; single morning doses 1-200 mg
  measures of sleepiness (KSS, DSST, PVT): general dose-response relationship
